Experimental data as given in ChEMBL document CHEMBL1201862, “PubChem BioAssay data set” (2004).
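Growth conditions: 96-well plates. Treatment: test compound, 48 hours, 5 concentrations. Analysis: linear interpolation between bracketing concentrations; unreached endpoints set to highest concentration. GI50: concentration for 50% inhibition of growth.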 The source made the active and inactive calls. Rule as the data show it: active = GI50 up to about 1.1 µM and inactive = higher.

Tests used:
Test in all cases: NCI tumour cell line growth inhibition, 48 h
HCT-116 = system: HCT-116
SNB-19 = system: SNB-19
EKVX = system: EKVX
SK-MEL-2 = system: SK-MEL-2
COLO 205 = system: COLO 205
SW-620 = system: SW-620
KM12 = system: KM12
SK-OV-3 = system: SK-OV-3
OVCAR-3 = system: OVCAR-3
MDA-N = system: MDA-N
NCI-H522 = system: NCI-H522
MOLT-4 = system: MOLT-4
RXF 393 = system: RXF 393
SN12C = system: SN12C
T47D = system: T47D
Malme-3M = system: Malme-3M
ACHN = system: ACHN
HOP-92 = system: HOP-92
SK-MEL-5 = system: SK-MEL-5
MDA-MB-231 = system: MDA-MB-231

Row | Structure (SMILES) | GI50 (HCT-116) | GI50 (SNB-19) | GI50 (EKVX) | GI50 (SK-MEL-2) | GI50 (COLO 205) | GI50 (SW-620) | GI50 (KM12) | GI50 (SK-OV-3) | GI50 (OVCAR-3) | GI50 (MDA-N) | GI50 (NCI-H522) | GI50 (MOLT-4) | GI50 (RXF 393) | GI50 (SN12C) | GI50 (T47D) | GI50 (Malme-3M) | GI50 (ACHN) | GI50 (HOP-92) | GI50 (SK-MEL-5) | GI50 (MDA-MB-231)
1 | COc1c(C=O)c2c(c(OC)c1OC)-c1ccc(OC)c(=O)cc1[C@@H](NC(C)=O)CC2 | 0.0174 µM (active) | 0.144 µM (active) | 47.9 µM (inactive) | 0.0313 µM (active) | 0.0239 µM (active) | 0.0148 µM (active) | 0.0134 µM (active) | 1.2 µM (inactive) | 0.0327 µM (active) | < 0.01 µM (active) | 0.0123 µM (active) | < 0.01 µM (active) | 0.148 µM (active) | 0.0824 µM (active) | > 100 µM (inactive) | 0.164 µM (active) | 1.17 µM (inactive) | 0.0288 µM (active) | 0.0241 µM (active) | 0.352 µM (active)
2 | COC(=O)NC(Cc1ccccc1)NC(=O)OC(C)(C)C (stereo not given) | > 100 µM (inactive) | > 100 µM (inactive) | > 100 µM (inactive) | > 100 µM (inactive) | > 100 µM (inactive) | > 100 µM (inactive) | > 100 µM (inactive) | > 100 µM (inactive) | > 100 µM (inactive) | > 100 µM (inactive) | 96.4 µM (inactive) | > 100 µM (inactive) | > 100 µM (inactive) | > 100 µM (inactive) | > 100 µM (inactive) | > 100 µM (inactive) | > 100 µM (inactive) | > 100 µM (inactive) | > 100 µM (inactive) | > 100 µM (inactive)
3 | CCc1cccc(C(C)C)c1NC1=C([n+]2ccc(C)cc2)C(=O)c2ccccc2C1=O.[O-][Cl+3]([O-])([O-])[O-] | 3.21 µM (inactive) | 1.83 µM (inactive) | 0.817 µM (active) | 3.87 µM (inactive) | 1.1 µM (active) | 0.861 µM (active) | 2.77 µM (inactive) | 2.64 µM (inactive) | 0.647 µM (active) | 1.65 µM (inactive) | 1.32 µM (inactive) | 0.3 µM (active) | 0.575 µM (active) | 0.475 µM (active) | 0.13 µM (active) | 2.12 µM (inactive) | 0.275 µM (active) | 0.451 µM (active) | 1.14 µM (inactive) | 2.21 µM (inactive)
